Experimental data: ChEMBL document CHEMBL3600338, “NMR-based conformational analysis of 2',6-disubstituted uridines and antiviral evaluation of new phosphoramidate prodrugs” (Bioorg Med Chem, 2015)
The source made the active and inactive calls.

Experiments:
Vero [1] = experiment: Antiviral activity against Coxsackievirus B3 Nancy infected in African green monkey Vero cells assessed as reduction of viral replication; format: functional, cell-based; settings: Coxsackievirus B3 (strain Nancy)
Hepatitis C virus = experiment: Antiviral activity against Hepatitis C virus genotype 1b Con1 in HuH 5-2 replicon system assessed as reduction of viral replication; format: functional; settings: Hepacivirus hominis
Enterovirus A71 = experiment: Antiviral activity against Enterovirus 71 infected in human HeLa cells assessed as reduction of viral replication; format: functional, organism-based
Chikungunya virus = experiment: Antiviral activity against Chikungunya virus assessed as reduction of viral replication; format: functional
rhinovirus B14 = experiment: Antiviral activity against Rhinovirus 14 infected in human HeLa cells assessed as reduction of viral replication; format: functional, organism-based
Poliovirus 1 = experiment: Antiviral activity against Poliovirus 1 Sabin infected in African green monkey BGM cells assessed as reduction of viral replication; format: functional, organism-based
Vero [2] = experiment: Antiviral activity against Coxsackievirus B4 E2 infected in African green monkey Vero cells assessed as reduction of viral replication; format: functional, cell-based; settings: Coxsackievirus B4 (strain E2)

Measured: Activity

CC(C)OC(=O)[C@H](C)NP(=O)(OC[C@H]1OC(n2c(I)cc(=O)[nH]c2=O)[C@H](O)[C@@H]1O)Oc1ccccc1 (some centres not stated)
inactive: all assays above

Cc1cc(=O)[nH]c(=O)n1C1O[C@H](COP(=O)(N[C@@H](C)C(=O)OC(C)C)Oc2ccccc2)[C@@H](O)[C@@]1(C)O (some centres not stated)
inactive: all assays above

Cc1cc(=O)[nH]c(=O)n1C1O[C@H](COP(=O)(N[C@@H](C)C(=O)OC(C)C)Oc2ccccc2)[C@@H](O)[C@H]1O (some centres not stated)
inactive: all assays above

CC(C)OC(=O)[C@H](C)NP(=O)(OC[C@H]1OC(n2c(C#N)cc(=O)[nH]c2=O)[C@](C)(O)[C@@H]1O)Oc1ccccc1 (some centres not stated)
inactive: all assays above

CC(C)OC(=O)[C@H](C)NP(=O)(OC[C@H]1OC(n2c(N=[N+]=[N-])cc(=O)[nH]c2=O)[C@H](O)[C@@H]1O)Oc1ccccc1 (some centres not stated)
inactive: all assays above

CC(C)OC(=O)[C@H](C)NP(=O)(OC[C@H]1OC(n2c(C#N)cc(=O)[nH]c2=O)[C@H](O)[C@@H]1O)Oc1ccccc1 (some centres not stated)
inactive: all assays above
